PMC10867575, “Functional validation of novel levamisole resistance marker S168T in Haemonchus contortus” (International Journal for Parasitology: Drugs and Drug …, 2024)
Like-named read-outs stand apart in the source and are kept apart here.

Tested on: T1, Hco-L-AChR-1.1 (UNC-29.1/UNC-38/UNC-63/ACR-8)
T1 construct: cRNAs co-injected in Xenopus laevis oocytes with H. contortus ancillary ric-3.1, unc-50, unc-74; wild-type clones from earlier studies; S168T acr-8 cloned from isolate MHco18 (UGA2004), vector pTB207
Assay: two-electrode voltage clamp, Xenopus oocytes
Format: cell-based, Haemonchus contortus
Conditions: agonist, 100 mM NaCl, 2.5 mM KCl, 1 mM CaCl2, 5 mM HEPES, pH 7.3, currents normalised to 100 μM ACh
From the text: two-electrode voltage clamp, Xenopus oocytes on Hco-L-AChR-1.1 (UNC-29.1/UNC-38/UNC-63/ACR-8)

Row | SMILES | EC50 (read-out: ACh EC50) | EC50 (read-out: LEV EC50)
1 | CC(=O)OCC[N+](C)(C)C [ACh, acetylcholine] | 4.2 ± 1.1 µM | –
2 | c1ccc([C@H]2CN3CCSC3=N2)cc1 [LEV, levamisole] | – | 3.2 ± 1.1 µM
